System: R. pulicis
Type: cell-based, Rickettsia pulicis

Compound: CO[C@H]1/C=C/O[C@@]2(C)Oc3c(C)c(O)c4c(O)c(c(/C=N/N5CCN(C)CC5)c(O)c4c3C2=O)NC(=O)/C(C)=C\C=C\[C@H](C)[C@H](O)[C@@H](C)[C@@H](O)[C@@H](C)[C@H](OC(C)=O)[C@@H]1C [Rifampin]
- inhibitory at single concentration tested: inhibitory
